Data on eight compounds can be found in US10253041B2, “7-phenylethylamino-4H-pyrimido[4,5-d][1,3]oxazin-2-one compounds and their use as mutant IDH1 inhibitors” (Eli Lilly and Company, priority 2015, dated 2019).

In one assay the target is T1, IDH2/R140Q (Homo sapiens, UniProt P48735, R140Q).
T1 construct: His-tag (N); made in house; host or cells: E. coli
T1 sequence (P48735 40-452 R140Q): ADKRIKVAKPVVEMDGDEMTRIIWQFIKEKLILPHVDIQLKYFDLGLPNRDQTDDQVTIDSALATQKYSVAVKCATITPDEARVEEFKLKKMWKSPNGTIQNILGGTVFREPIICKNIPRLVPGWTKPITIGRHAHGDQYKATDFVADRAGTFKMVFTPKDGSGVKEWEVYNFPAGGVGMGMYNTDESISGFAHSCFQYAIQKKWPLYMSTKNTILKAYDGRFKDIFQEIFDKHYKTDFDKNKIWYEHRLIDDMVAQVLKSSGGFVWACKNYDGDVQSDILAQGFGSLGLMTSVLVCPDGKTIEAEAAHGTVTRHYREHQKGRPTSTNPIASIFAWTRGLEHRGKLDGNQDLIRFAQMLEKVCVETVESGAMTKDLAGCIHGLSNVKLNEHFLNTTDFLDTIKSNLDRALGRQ
The assay can be described thus: Biochemical assay for IDH2 R140Q mutant enzyme (2HG by RapidFire MS). Particulars: mean ± standard deviation of the mean; 90 minutes reaction. The procedure: (§1) IDH1-R132H, IDH1-R132C, IDH2-R172K and IDH2-R140Q mutant enzymes catalyze the conversion of αKG to 2HG. 2HG is analyzed using in-line solid phase extraction and mass spectrometry. This analysis is carried out in a RapidFire® instrument coupled to a 6460 triple quadrupole mass spectrometer (G6460A Agilent).
(§2) IDH1 mutant (R132H and R132C) and IDH2 mutant (R140Q and R172K) proteins containing N-terminal His-tag are expressed in E. coli and purified using nickel affinity chromatography. The enzyme assays are carried out in V-bottom 96 well polypropylene plates containing 100 mM Tris-HCl buffer, 1 mM DTT, 0.005% TRITON™ X-100, 120 mM NaCl. For IDH1 R132H, α-ketoglutarate, NADPH and MnCl2 are included at final concentrations of 300 μM, 2.5 μM and 300 μM respectively. For IDH1 R132C, α-ketoglutarate, NADPH and MnCl2 are included at final concentrations of 100 μM, 10 μM and 100 μM respectively. For IDH2 R172K, α-ketoglutarate, NADPH and MnCl2 are included at final concentrations of 150 μM, 10 μM and 150 μM respectively. For IDH2 R140Q, α-ketoglutarate, NADPH and MnCl2 are included at final concentrations of 3000 μM, 10 μM and 100 μM respectively. Final pH=7.0. Test compound dissolved in DMSO stock is diluted in the reaction mix at a final DMSO concentration of 4%. Compounds are tested in dose-response format. The assay is started by addition of enzyme. Enzymes are used at the following final concentrations: IDH1 R132H, 2 nM; IDH1 R132C, 0.5 nM; IDH2 R172K, 1.2 nM; IDH2 R140Q, 1.2 nM. After 90 minutes the reaction is quenched by adding ACN (50:50) containing 3-hydroxy-1,5-pentanedioic-2,2,3,4,4-d5 acid (5d5-3HG) as an internal standard for mass spectrometry analysis and quantitation of reaction product. 2-Hydroxyglutarate (2HG) in quenched samples is separated using strong anionic exchange column chromatography (Phenomenex Strata-X-A SecurityGuard) and analyzed by mass spectrometry in a 6460 triple quadrupole mass spectrometer (G6460A Agilent). The 2HG signal detected is transformed into an analyte concentration using a calibration curve generated using known 2HG concentrations. […] IC50 values are obtained from the individual % inhibition values at different compound concentrations using a 4-parameter equation. These calculations are carried out using Activity Base (IDBS) or Screener (Genedata) data analysis programs.

The test system of assay [1] is IDH1/R132H in U87MG glioma cells. The experiment in a line: U87MG/IDH1R132H cell assay (intracellular 2HG). The class given is cell-based. Particulars: Homo sapiens, U-87 MG, 1 hour + 18 hours incubation, read-out: U87MG (IDH1/R132H 2-hydroxyglutarate IC50). As for the experimental part:
To test the cellular inhibition of IDH1 mutant R132C, the fibrosarcoma cell line HT1080 (purchased from ATCC) is used. For testing cell-based inhibition of the R132H mutation, the U87MG glioma cell line (ATCC) was stably transfected with a DNA construct expressing the R132H mutant enzyme.
Cells are plated in poly-D-lys coated 96 well plates (12,000 cells/well) 18-24 hours previous to treatment with compounds. Four hours prior to compound treatment, cells are glutamine-starved by removing normal media and replacing with glutamine-free media. Following starvation, cells are then treated with different concentrations of test compounds (20 μM to 1 nM) dissolved in glutamine free media containing DMSO at a final concentration of 0.2%. The initial compound incubation is for 1 hour at 37° C./5% CO2. After 1 hour, glutamine is added to a final 2 mM concentration and the treated cells are then incubated for a further 18 hours at 37° C./5% CO2. Intracellular 2HG is analyzed in cell lysates obtained after media removal and treatment with lysis buffer (25 mM Tris-HCl pH 7.5, 150 mM NaCl, 1 mM EDTA, 1 mM EGTA/1% Triton-X 100). Cell lysates are conserved at −80° C. until processing. For analyte extraction, an aliquot of thawed lysate is transferred to a deep 96-well plate and treated with cold MeOH containing d5-3HG as an internal standard followed by chloroform and H2O (1:4:3:2). The upper phase is collected after separation and injected in HPLC to separate 2HG (and internal standard) using hydrophilic interaction (HILIC) chromatography coupled to MS/MS detection in a 6460 triple quadrupole mass spectrometer. Percent inhibition for each individual sample is obtained after normalizing calculated 2HG concentration to maximum and minimum references obtained in the presence and in the absence of glutamine during cell treatment with compounds. IC50 values are obtained from individual % inhibition using a sigmoidal dose-response 4-parameter equation. These calculations are carried out automatically using Activity Base (IDBS) or Screener (Genedata) data analysis programs.

The target in another assay is T2, IDH2/R172K (Homo sapiens, UniProt P48735, R172K).
T2 construct: His-tag (N); made in house; host or cells: E. coli
T2 sequence (P48735 40-452 R172K): T1 sequence (P48735 40-452 R140Q) with Q101R, R133K
The experiment in a line: Biochemical assay for IDH2 R172K mutant enzyme (2HG by RapidFire MS). Particulars: mean ± standard deviation of the mean; 90 minutes reaction. The procedure:
as §1, §2

Each structure is given as a SMILES string. Substitutions are numbered along the chain they refer to. Read-outs that look alike come from different tables or passages of the source.

In the case of `C=CC(=O)N1CC(N(C)Cc2ccc([C@H](C)Nc3ncc4c(n3)N(CC)C(=O)OC4)cc2)C1` [Example 10, 1-Ethyl-7-[[(1S)-1-[4-[[methyl-(1-prop-2-enoylazetidin-3-yl)amino]methyl]-phenyl]ethyl]amino]-4H-pyrimido[4,5-d][1,3]oxazin-2-one], the IC50 against IDH2/R140Q was greater than 100 µM; in assay [1] (19 h), 0.00714 ± 0.00127 µM; on IDH2/R172K it was 6.61 µM.
Consider `C=CC(=O)N1CCN(Cc2ccc([C@H](C)Nc3ncc4c(n3)N(C)C(=O)OC4)cc2)CC1` [Example 19, 1-Methyl-7-[[(1S)-1-[4-[(4-prop-2-enoylpiperazin-1-yl)methyl]phenyl]ethyl]amino]-4H-pyrimido[4,5-d][1,3]oxazin-2-one], for which the IC50 is greater than 100 µM at IDH2/R140Q, 0.0449 ± 0.0224 µM in assay [1] and 23 ± 12.4 µM against IDH2/R172K.
As for `C=CC(=O)N1CCN(Cc2ccc([C@H](C)Nc3ncc4c(n3)N(CC(F)F)C(=O)OC4)cc2)CC1` [Example 20, 1-(2,2-difluoroethyl)-7-[[(1S)-1-[4-[(4-prop-2-enoylpiperazin-1-yl)methyl]phenyl]ethyl]amino]-4H-pyrimido[4,5-d][1,3]oxazin-2-one], the IC50 amounted to 83.5 ± 17.4 µM on IDH2/R140Q, 0.0319 ± 0.0117 µM in assay [1] (19 h) and 6.78 ± 2.4 µM on IDH2/R172K.
Regarding `C=CC(=O)N1CC(OCc2ccc([C@H](C)Nc3ncc4c(n3)N(CC(C)C)C(=O)OC4)cc2)C1` [Example 13, 1-Isobutyl-7-[[(1S)-1-[4-[(1-prop-2-enoylazetidin-3-yl)oxymethyl]phenyl]ethyl]amino]-4H-pyrimido[4,5-d][1,3]oxazin-2-one], the IC50 at IDH2/R140Q came to 93.6 µM; in assay [1] (19 h), 0.0075 ± 0.000283 µM; against IDH2/R172K, 5.34 µM.
In the same order, the values of `C=CC(=O)N1CCN(Cc2ccc([C@H](C)Nc3ncc4c(n3)N(CCF)C(=O)OC4)cc2)CC1` [Example 21, 1-(2-fluoroethyl)-7-[[(1S)-1-[4-[(4-prop-2-enoylpiperazin-1-yl)methyl]phenyl]ethyl]amino]-4H-pyrimido[4,5-d][1,3]oxazin-2-one] are greater than 100 µM, 0.0246 ± 0.0159 µM and 10.4 ± 7 µM.
In the same order, the values of `C=CC(=O)N1CCN(Cc2ccc([C@H](C)Nc3ncc4c(n3)N([C@H](C)CO)C(=O)OC4)cc2)CC1` [Example 11, 1-[(1R)-2-Hydroxy-1-methyl-ethyl]-7-[[(1S)-1-[4-[(4-prop-2-enoylpiperazin-1-yl)methyl]phenyl]ethyl]amino]-4H-pyrimido[4,5-d][1,3]oxazin-2-one] are greater than 100 µM, 0.00735 ± 7e-05 µM and 7.84 µM.
Take `C=CC(=O)N1CCN(c2ccc([C@H](C)Nc3ncc4c(n3)N(C(C)C)C(=O)OC4)cc2)CC1` [Example 6, 1-Isopropyl-7-[[(1S)-1-[4-(4-prop-2-enoylpiperazin-1-yl)phenyl]ethyl]amino]-4H-pyrimido[4,5-d][1,3]oxazin-2-one]: the IC50 on IDH2/R140Q is greater than 100 µM; in assay [1] (19 h) it was 0.0174 ± 0.0013 µM; against IDH2/R172K, 14.1 µM.
On to `C=CC(=O)N1CCN(Cc2ccc([C@H](C)Nc3ncc4c(n3)N(C(C)C)C(=O)OC4)cc2)CC1` [Example 1, 1-Isopropyl-7-[[(1S)-1-[4-[(4-prop-2-enoylpiperazin-1-yl)methyl]phenyl]ethyl]amino]-4H-pyrimido[4,5-d][1,3]oxazin-2-one], for which the IC50 on IDH2/R140Q came to 41.8 µM; in assay [1] (19 h), 0.00265 ± 7e-05 µM; against IDH2/R172K, 1.67 µM.
